Results published in PubChem BioAssay (NCI).
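96-well plates; 48 h exposure; 5 concentrations. Endpoints by linear interpolation between flanking doses. Not reached: highest tested concentration assigned. GI50 marks 50% less growth. TGI marks complete inhibition of growth.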

Assays:
Test in all cases: NCI anticancer screen, dose series, 48 h
SK-MEL-28 melanoma = test system: SK-MEL-28 melanoma
NCI-H23 lung = test system: NCI-H23 lung
RXF 393 renal = test system: RXF 393 renal
SNB-19 CNS = test system: SNB-19 CNS
EKVX NSCLC = test system: EKVX NSCLC
MDA-MB-435 = test system: MDA-MB-435
NCI-H226 lung = test system: NCI-H226 lung
DU-145 prostate = test system: DU-145 prostate
HS 578T breast = test system: HS 578T breast
MALME-3M melanoma = test system: MALME-3M melanoma

SMILES | TGI (SK-MEL-28 melanoma) | TGI (NCI-H23 lung) | TGI (RXF 393 renal) | TGI (SNB-19 CNS) | TGI (EKVX NSCLC) | TGI (MDA-MB-435) | TGI (NCI-H226 lung) | TGI (DU-145 prostate) | TGI (HS 578T breast) | TGI (MALME-3M melanoma) | GI50 (SK-MEL-28 melanoma) | GI50 (NCI-H23 lung) | GI50 (RXF 393 renal) | GI50 (SNB-19 CNS) | GI50 (EKVX NSCLC) | GI50 (MDA-MB-435) | GI50 (NCI-H226 lung) | GI50 (DU-145 prostate) | GI50 (HS 578T breast) | GI50 (MALME-3M melanoma)
C=C[C@@]1(C)CC(=O)[C@]2(O)[C@@]3(C)[C@@H](O)CCC(C)(C)[C@@H]3[C@H](O)[C@@H](OC(C)=O)[C@@]2(C)O1 | > 100 µM | > 100 µM | > 100 µM | > 100 µM | > 100 µM | > 100 µM | > 100 µM | > 100 µM | > 100 µM | > 100 µM | – | – | – | – | – | – | – | – | – | –
CCOC(=O)C(=Cc1c(-c2ccccc2)[nH]c2ccccc12)C(=O)OCC | 21.6 µM | 11.7 µM | 12.1 µM | > 64.3 µM | 54.1 µM | 13.6 µM | 34.7 µM | 28.4 µM | 28.8 µM | 22.3 µM | 7.4 µM | 2.56 µM | 3.1 µM | 21.6 µM | 10.8 µM | 3.36 µM | 11.3 µM | 9.69 µM | 3.53 µM | 8.09 µM
COc1ccc(-c2nn3ncccc3c2-c2ccnc(Nc3cccc(C(F)(F)F)c3)n2)cc1 | > 25 µM | > 25 µM | 24.5 µM | > 25 µM | > 25 µM | > 25 µM | > 25 µM | > 25 µM | > 25 µM | > 25 µM | 16.7 µM | 7.99 µM | 5.76 µM | 12.5 µM | 6.69 µM | 10.1 µM | 9.16 µM | 12.1 µM | 8.29 µM | 10.2 µM
COC12C=C/C(=C(/C(=O)OCc3csc(SC)n3)C(=O)CCCCCCCCC3(OC)C=C/C(=C(/C(=O)OCc4cnc(SC)s4)C(=O)CCCCCCCC1)O3)O2 (stereo not given) | > 100 µM | > 100 µM | 3.52 µM | > 100 µM | > 100 µM | 5.32 µM | 17.1 µM | > 100 µM | 57.6 µM | 39.7 µM | 0.955 µM | 2.5 µM | 1.75 µM | 8.6 µM | 6.38 µM | 1.68 µM | 3.48 µM | 5.39 µM | 4.52 µM | 3.84 µM
CCn1c(-c2nonc2N)nc2c(C#CC(C)(C)O)ncc(OC[C@@H]3CCCN3)c21 | > 25 µM | > 25 µM | 3.18 µM | > 25 µM | > 25 µM | > 25 µM | > 24 µM | > 22.9 µM | > 19.5 µM | > 25 µM | 12.1 µM | 8.64 µM | 0.189 µM | 4.28 µM | 11.7 µM | 11.6 µM | 8.27 µM | 4.76 µM | 1.72 µM | > 15.3 µM
Cc1cc([C@H](C)Nc2nccc(N3C(=O)OC[C@@H]3[C@H](C)F)n2)ncc1-c1ccnc(C(F)(F)F)c1 | > 100 µM | > 100 µM | 86.4 µM | > 100 µM | > 100 µM | > 100 µM | > 100 µM | > 100 µM | > 100 µM | > 100 µM | 48.8 µM | 17 µM | 11.3 µM | 39 µM | 19.2 µM | 41.1 µM | 30.5 µM | 75.6 µM | 39.2 µM | 24.2 µM
COc1ccc2c(c1)c(-c1cc(-c3cn(C)c4ccc(OC)cc34)[nH]n1)cn2C | > 100 µM | > 100 µM | > 100 µM | > 100 µM | > 100 µM | > 100 µM | > 100 µM | > 100 µM | > 100 µM | > 100 µM | > 100 µM | > 100 µM | > 100 µM | > 100 µM | > 100 µM | > 100 µM | > 100 µM | > 100 µM | > 100 µM | > 100 µM
O=C(O)C(Cc1c[nH]c2ccccc12)N1C(=O)c2ccccc2C1=O (stereo not given) | > 100 µM | > 100 µM | > 100 µM | > 100 µM | > 100 µM | > 100 µM | > 100 µM | > 100 µM | > 100 µM | > 100 µM | – | – | – | – | – | – | – | – | – | –
Cc1ccc(NCCNCC(O)CO)c2c(=O)c3ccccc3sc12 (stereo not given) | 3.3 µM | 3.54 µM | 2.89 µM | 3.23 µM | 3.77 µM | 3.1 µM | 3.44 µM | 2.62 µM | 5.9 µM | 2.76 µM | 1.69 µM | 1.73 µM | 1.43 µM | 1.52 µM | 1.83 µM | 1.52 µM | 1.65 µM | 1.28 µM | 2.19 µM | 1.37 µM
